Experimental findings from patent US10370436B2, “Anti-pseudomonas Psl binding molecules and uses thereof” (priority 2011, dated 2019) are described below.

In this test the test system is P. aeruginosa PAO1 cells. The experiment in a line: Flow cytometry (FACS) whole cell binding. More on the design: species or system Pseudomonas aeruginosa. As to conditions: PAO1ΔpslA; FIG. 3C. From the text:
For IgG expression, the VH and VL chains of selected antibodies were cloned into human IgG1 expression vectors, co-expressed in HEK293 cells, and purified by protein A affinity chromatography as described (Persic, L., et al., Gene 187, 9-18 (1997)). Human IgG1 antibodies made with the variable regions from these selected serotype independent phage were confirmed for P. aeruginosa specificity and prioritized for subsequent analysis by whole cell binding to dominant clinically relevant serotypes by FACS analysis (FIG. 1F), since this method is more stringent than ELISA. For the flow cytometry based binding assays mid-log phase P. aeruginosa strains were concentrated in PBS to an OD650 of 2.0. […] Samples were run on a LSR II flow cytometer (BD Biosciences) and analyzed using BD FacsDiva (v. 6.1.3) and FlowJo (v. 9.2; TreeStar).
CAM-003 is specific for the P. aeruginosa Psl surface exopolysaccharide and mediates potent OPK activity and protection in multiple in vivo models. […] Conjugation efficiency of PMB-mAbs variants was determined by mass spectrometry analysis of heavy chains in purified conjugates. […] Contamination with free PMB in the purified preparations was determined to be negligible. Binding of PMB-Cam-003 and PMB-A7 conjugates to P. aeruginosa PAO1 cells was evaluated by FACS. […] Samples were stained and analyzed as previously described in Example 1. […]
(In general: In flow cytometry, cells or beads pass a laser one at a time.)

With “Cam-003: human IgG1 anti-Psl monoclonal antibody, VH SEQ ID NO: 1 and VL SEQ ID NO: 2”, the FACS binding result is given as “abolished”.
